# Values of other authors as cited in PMC4269829 (Cancer cell, 2014).
# How the values were obtained:
# [1] = tested on: ALK variant with I1171T mutation; settings: crizotinib-resistant I1171T mutation; ref Friboulet et al., 2014
# ALK with F1174 mutation = settings: ref Friboulet et al., 2014
# [2] = tested on: ALK variant with L1196M mutation; settings: crizotinib-resistant L1196M mutation; ref Friboulet et al., 2014
smiles,measurement,setting,value
Cc1cc(Nc2ncc(Cl)c(Nc3ccccc3S(=O)(=O)C(C)C)n2)c(OC(C)C)cc1C1CCNCC1 [ceritinib],inhibition of ALK variant (in words),[1],inhibit
same,overcoming resistance of ALK mutation (in words),ALK with F1174 mutation,not to overcome resistance
same,inhibition of ALK variant (in words),[2],inhibit
